Measured values: ChEMBL document CHEMBL5505987 (Eur J Med Chem, 2024)
Calls of active or inactive are those of the source. No cut-off for these calls is given here.

How the values were obtained:
MDA-MB-231 [1] = experiment: Induction of apoptosis in human MDA-MB-231 cells assessed as increase in apoptotic rate at 4 uM incubated for 24 hrs by Annexin V-FITC/PI double staining by flow cytometry; type: functional
4T1 [2] = experiment: Induction of mitochondrial membrane potential loss in mouse 4T1 cells assessed as increase in fluorescence intensity by JC-1 monomer assay; type: functional, cell-based; details: dose 2-4 µM
MCF7 = experiment: Cytotoxicity against human MCF7 cells assessed as cell viability by MTT assay; type: functional, cell-based
MDA-MB-231 [3] = experiment: Cytotoxicity against human MDA-MB-231 cells assessed as cell viability by MTT assay; type: functional, cell-based
[4] = Cytotoxicity against human HFF cells assessed as cell viability by MTT assay; type: toxicity, cell-based
MDA-MB-231 [5] = experiment: Antimigratory activity against human MDA-MB-231 cells assessed as decrease in migration of tumor cells into scratching region at 8 to 10 uM incubated for 12 to 24 hrs by Wound healing assay; type: functional, cell-based; details: dose 8-10 µM, time 12-24 hrs
4T1 [6] = experiment: Induction of mitochondrial membrane potential loss in mouse 4T1 cells assessed as decrease in fluorescence intensity by JC-1 aggregate assay; type: functional, cell-based; details: dose 2-4 µM
4T1 [7] = experiment: Induction of apoptosis in mouse 4T1 cells assessed as increase in apoptotic rate incubated for 24 hrs in presence of SB-431542 TGF-beta signaling inhibitor by Annexin V-FITC/PI double staining by flow cytometry; type: functional, cell-based
MDA-MB-231 [8] = experiment: Induction of apoptosis in human MDA-MB-231 cells assessed as increase in cleaved PARP expression at 1 to 4 uM incubated for 24 hrs by Western blotting analysis; type: functional, cell-based; details: dose 1-4 µM
MDA-MB-231 [9] = experiment: Anti-tumor activity against human MDA-MB-231 cells assessed as change in TGF-beta1/Smad signaling pathway by measuring fluorescence intensity of p-Smad3 level at 2 to 4 uM after 24 hrs incubation by immunofluorescence staining assay; type: functional, cell-based; details: dose 2-4 µM
4T1 [10] = experiment: Induction of apoptosis in mouse 4T1 cells assessed as increase in apoptotic rate at 6 uM incubated for 24 hrs by Annexin V-FITC/PI double staining by flow cytometry; type: functional
MDA-MB-231 [11] = experiment: Induction of apoptosis in human MDA-MB-231 cells assessed as increase in Bax expression at 1 to 4 uM incubated for 24 hrs by Western blotting analysis; type: functional, cell-based; details: dose 1-4 µM
4T1 [12] = experiment: Induction of cell cycle arrest in mouse 4T1 cells assessed as accumulation of cells at G0/G1 phase at 6 uM measured after 24 hrs by PI staining by flow cytometry; type: functional
HeLa = experiment: Cytotoxicity against human HeLa cells assessed as cell viability by MTT assay; type: functional, cell-based
MDA-MB-231 [13] = experiment: Induction of apoptosis in human MDA-MB-231 cells assessed as increase in apoptotic rate incubated for 24 hrs in presence of SB-431542 TGF-beta signaling inhibitor by Annexin V-FITC/PI double staining by flow cytometry; type: functional, cell-based
4T1 [14] = experiment: Induction of cell cycle arrest in mouse 4T1 cells assessed as accumulation of cells at G0/G1 phase measured after 24 hrs in presence of SB-431542 TGF-beta signaling inhibitor by PI staining by flow cytometry; type: functional, cell-based
MDA-MB-231 [15] = experiment: Induction of mitochondrial membrane potential loss in human MDA-MB-231 cells assessed as increase in fluorescence intensity by JC-1 monomer assay; type: functional, cell-based; details: dose 2-4 µM
MDA-MB-231 [16] = experiment: Induction of cell cycle arrest in human MDA-MB-231 cells assessed as upregulation of p21 protein expression at 1 to 4 uM measured after 24 hrs by immunoblotting assay; type: functional, cell-based; details: dose 1-4 µM
MDA-MB-231 [17] = experiment: Anti-metastatic activity in human MDA-MB-231 cells assessed as decrease in vimentin protein level at 1 to 4 uM by Western blotting analysis; type: functional, cell-based; details: dose 1-4 µM
MDA-MB-231 [18] = experiment: Anti-proliferative activity against human MDA-MB-231 cells assessed as cell viability measured after 24 hrs by MTT assay; type: functional, cell-based; details: dose 1-8 µM
4T1 [19] = experiment: Antimigratory activity against mouse 4T1 cells assessed as decrease in migration of tumor cells into scratching region at 8 to 10 uM incubated for 12 to 24 hrs by Wound healing assay; type: functional, cell-based; details: dose 8-10 µM, time 12-24 hrs
MDA-MB-231 [20] = experiment: Induction of cell cycle arrest in human MDA-MB-231 cells assessed as reduction in cyclin E1 expression at 1 to 4 uM measured after 24 hrs by immunoblotting assay; type: functional, cell-based; details: dose 1-4 µM
MDA-MB-231 [21] = experiment: Induction of apoptosis in human MDA-MB-231 cells assessed as decrease in Bcl-2 expression at 1 to 4 uM incubated for 24 hrs by Western blotting analysis; type: functional, cell-based; details: dose 1-4 µM
MDA-MB-231 [22] = experiment: Anti-tumor activity against human MDA-MB-231 cells assessed as change in expression of genes involved in TGF-beta1/Smad signaling pathway measured after 24 hrs incubation by RNA-Seq analysis; type: functional, cell-based
4T1 [23] = experiment: Induction of apoptosis in mouse 4T1 cells assessed as increase in apoptotic rate at 1.5 uM incubated for 24 hrs by Annexin V-FITC/PI double staining by flow cytometry; type: functional
MDA-MB-231 [24] = experiment: Inhibition of colony formation in human MDA-MB-231 cells assessed as reduction in colony formation treated for 10 days medium refreshed every two days by crustal violet based assay; type: functional, cell-based; details: time 10.0 day
MDA-MB-231 [25] = experiment: Induction of cell cycle arrest in human MDA-MB-231 cells assessed as reduction in p-Rb expression at 1 to 4 uM measured after 24 hrs by immunoblotting assay; type: functional, cell-based; details: dose 1-4 µM
MDA-MB-231 [26] = experiment: Induction of apoptosis in human MDA-MB-231 cells assessed as increase in cleaved caspase 3 expression at 1 to 4 uM incubated for 24 hrs by Western blotting analysis; type: functional, cell-based; details: dose 1-4 µM
MDA-MB-231 [27] = experiment: Induction of cell cycle arrest in human MDA-MB-231 cells assessed as reduction in cyclin D1 expression at 1 to 4 uM measured after 24 hrs by immunoblotting assay; type: functional, cell-based; details: dose 1-4 µM
MDA-MB-231 [28] = experiment: Induction of mitochondrial membrane potential loss in human MDA-MB-231 cells assessed as decrease in fluorescence intensity by JC-1 aggregate assay; type: functional, cell-based; details: dose 2-4 µM

O=C1C[C@@H](c2ccccc2)Oc2cc(O)c([C@H](/C=C/C[C@@H](O)CCc3ccccc3)c3ccccc3)c(O)c21
Activity (MDA-MB-231 [1]): 46.4%
Activity (4T1 [2]): Dose-Dependent Effect
IC50 (MCF7): 8.64 µM
IC50 (MDA-MB-231 [3]): 4.33 µM
IC50 [4]: 5.91 µM
Activity (MDA-MB-231 [5]): Active
Activity (4T1 [6]): Dose-Dependent Effect
Activity (4T1 [7]): inactive
Activity (MDA-MB-231 [8]): Active
Activity (MDA-MB-231 [9]): Active
Activity (4T1 [10]): 48.24%
Activity (MDA-MB-231 [11]): Active
Activity (4T1 [12]): 78.34%
IC50 (HeLa): 2.2 µM
Activity (MDA-MB-231 [13]): inactive
Activity (4T1 [14]): inactive
Activity (MDA-MB-231 [15]): Dose-Dependent Effect
Activity (MDA-MB-231 [16]): Active
Activity (MDA-MB-231 [17]): Active
Activity (MDA-MB-231 [18]): Dose-Dependent Effect
Activity (4T1 [19]): Active
Activity (MDA-MB-231 [20]): Active
Activity (MDA-MB-231 [21]): Active
Activity (MDA-MB-231 [22]): Active
Activity (4T1 [23]): 6.84%
inhibition (MDA-MB-231 [24]): Dose-Dependent Effect
Activity (MDA-MB-231 [25]): Active
Activity (MDA-MB-231 [26]): Active
Activity (MDA-MB-231 [27]): Active
Activity (MDA-MB-231 [28]): Dose-Dependent Effect
